Laboratory results: patent US8968784B2, “Method for preparing hydro/organo gelators from disaccharide sugars by biocatalysis and their use in enzyme-triggered drug delivery” (Research Foundation of the City University of New York, priority 2006, dated 2015)
≈ marks a conversion by molar mass, not a printed value.

What was measured:
[1] = Gelation ability in water and organic solvents (inverted tube, visual); format: physicochemical; conditions: for gel formation: highly polar solvents like water, methanol, and non-polar solvents like nonane, benzene, toluene
Method: Typically, a gelator (0.01-2 mg) in a required solvent (0.1-1 mL) was heated until the solid was completely dissolved. The resulting solution was slowly allowed to cool to room temperature and gelation was visually observed. […] All gels obtained were thermally reversible. Above their gelation temperature, the gels dissolved in water but could be returned to their original gel state upon cooling.
Typically, the gelator (0.01-2 mg) and required solvent (0.1-1 mL) were placed into a 2 mL scintillation vial, which was then sealed with a screw cap. The vial was heated and shook until the solid was completely dissolved. The solution was set aside and allowed to cool to room temperature. Gelation was considered to have occurred when no gravitational flow in the inverted tube was observed.

[2] = target: T1, hydrolase enzyme (Lipolase 100L, Type EX) (Thermomyces lanuginosus, UniProt O59952); test: Enzyme-triggered gel degradation and curcumin release from hydrogel, monitored by UV absorption; conditions: for curcumin release: room temperature
T1 construct: purchased Lipolase 100L, Type EX
T1 sequence (O59952 23-291): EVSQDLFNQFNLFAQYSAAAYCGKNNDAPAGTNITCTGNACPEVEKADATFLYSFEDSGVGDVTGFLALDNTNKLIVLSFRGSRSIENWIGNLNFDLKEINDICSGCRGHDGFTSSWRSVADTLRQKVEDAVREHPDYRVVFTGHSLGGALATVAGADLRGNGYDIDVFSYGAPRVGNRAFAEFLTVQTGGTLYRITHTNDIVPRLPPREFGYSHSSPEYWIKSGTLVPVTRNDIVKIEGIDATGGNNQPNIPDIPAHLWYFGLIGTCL
Method: Solubilization of hydrophobic drugs and developing suitable drug delivery systems is a challenging task in drug discovery research.^18 A conceptual approach of single-step enzyme-triggered drug delivery at physiological conditions was performed where a hydrophobic drug molecule was encapsulated—solubilized without chemical modification—in a hydrogel and subsequent release of the drug by breaking the gel by using hydrolase enzyme (Lipolase 100L, Type EX). […] Drug release was monitored by absorbance spectra of the drug. Control of the drug release rate was achieved by manipulating the enzyme concentration and/or temperature. The by-products formed after the gel degradation were characterized and the cleavage site of the gelator by enzyme was determined. Gel degradation occurred due to the cleavage of the ester bond in the gelator by the hydrolase enzyme. ^18Miyata, T., Uragami, T. & Nakamae, K. Biomolecule-sensitive hydrogel. Adv. Drug Delivery Rev. 54, 79-98 (2002).
(§1) The release of curcumin into the solution in the presence of enzyme was monitored by measuring the curcumin UV-absorption spectrum. The absorption spectrum recorded in aqueous gel solution was compared with the curcumin spectra recorded in methanol. […] To test this hypothesis, water was added to the preformed gel and left for 12 hrs. The UV-absorption of the supernatant was recorded. […] XXVII. Cyclodextrin complexation: solubility, chemical and photochemical stability. Int. J. Pharm. 244, 127-135 (2002).
First, 0.5 mL of lipase—Lipolase 100L, Type EX, lipase units 100 KLU/g—was added to the preformed gel and kept at 37° C.—far lower than gel melting temperature. […] This was confirmed by spectroscopic experiments. Aliquots were collected after addition of an enzyme to the hydrogel after 10 min and 12 hrs and absorbance spectrum were recorded.
To find out the role of the enzyme on hydrogel degradation, similar experiments were carried out by adding only water without an enzyme. As expected, the curcumin-encapsulated gel was still intact after incubating for a few days at 37° C. There was no visual change in the gel volume and in the added solution. […] To this, 0.5 mL of lipolase was added and incubated at 37° C.
To obtain control on the rate of release, the role of enzyme concentration and temperature on gel degradation or controlled drug release was investigated. In a first set of experiments, the temperature was changed while keeping enzyme concentration constant. After addition of the enzyme to the preformed gel, the vial was kept at room temperature for two days, and as explained previously, curcumin release was monitored by absorption spectra.
In a second set of experiments, the enzyme concentration was changed while keeping the temperature constant. […] At room temperature, even after several days, there was no release. Then the vial was placed at 37° C. in incubation and took 300 min to start the drug release, which eventually took 4,320 min to release completely. In addition to this, a similar low enzyme concentrated vial was directly incubated at 45° C.
It is important to characterize the products/compounds formed after gel degradation. […] Upon gel degradation, a white fluffy solid was produced, which is not soluble in water, and thus settled down in the vial. The solid was isolated and characterized by ^1H-NMR, and it matched with the NMR of pure stearic acid. See FIG. 12, which is a comparison of the ^1H-NMR spectra of commercially available stearic acid and the white fluffy solid obtained after gel degradation, which was filtered, freeze-dried, and NMR recorded in Chloroform.

[3] = Solubilization (encapsulation) of curcumin in hydrogel; format: physicochemical; conditions: 0.5 wt % hydrogel of derivative 3, aqueous with cosolvent or surfactant or cyclodextrin
Method: as §1

Compound	gel formation [1]	Minimum gelation concentration (MGC) ([1]; in benzene)	Minimum gelation concentration (MGC) ([1]; in water)	number of solvents gelled ([1]; ten solvents tested (water, polar and nonpolar organic solvents))	gel degradation ([2]; hydrogel of derivative 3 without curcumin, 0.5 mL lipolase, 37° C., after 12 hrs)	site of gelator cleavage by enzyme (TLC, 1H-NMR of products) ([2]; products after gel degradation: amygdalin, stearic acid)	solubility [3]	time to complete curcumin release ([2]; lipase 100 KLU/g, 37° C.)	time to start of curcumin release ([2]; lipase 100 KLU/g, 37° C.)	time to complete curcumin release ([2]; lipase 100 KLU/g, 45° C.)	time to start of curcumin release ([2]; lipase 100 KLU/g, 45° C.)	curcumin release ([2]; lipase 100 KLU/g, two days)	time to complete curcumin release ([2]; lipolase 10 KLU/g, 37° C.)	time to start of curcumin release ([2]; lipolase 10 KLU/g, 37° C.)	time to complete curcumin release ([2]; lipolase 10 KLU/g, 45° C.)	time to start of curcumin release ([2]; lipolase 10 KLU/g, 45° C.)	curcumin release ([2]; lipolase 10 KLU/g, several days)	curcumin in supernatant (UV absorption) ([2]; water added to preformed gel of derivative 3, left 12 hrs, no enzyme)
Amygdalin Tetradecanoate [derivative 2]	formed gels																	
Amygdalin Octadecanoate [derivative 3]	formed gels	0.2 wt %	0.05 wt %	all ten solvents	degraded completely	cleaving the ester bond												
COc1cc(/C=C/C(=O)CC(=O)/C=C/c2ccc(O)c(OC)c2)ccc1O [curcumin]							1000 µM (≈ 368 µg/mL)	≤ 720 min	120 min	270 min	≤ 30 min	no release	4,320 min	300 min	2,880 min	180 min	no release	Absence of any absorbance peak
